For assay [1] the following is noted: K+ versus Na+; cited from earlier work.
The subject of assay [2] is Ca2+-activated non-selective cation (NSC) channels on the T84 cells. Put plainly: K+ efflux of T84 cells activated with A23187, measured with the GISFET. On the set-up: dose or concentration left out as unconfirmed. The format is cell-based, human. The note with it: T84 cells in normal saline solution. The source says:
In Example 2, GISFETs as contemplated by the present invention were fabricated as described in Example 1 and were then used to measure the K^+ efflux of human colonic epithelial cells. FIG. 9 is a schematic illustrating the use of the graphene ion sensitive field effect transistor (GISFET) of the present invention to determine the K^+ efflux from cells.
Specifically, human colonic T84 epithelial cells were used to investigate performance of the GISFET of the present invention. The Ca^2+-activated non-selective cation (NSC) channels on the T84 cells were activated with Ca^2+ ionophore A23187 ([…]), and then the corresponding K^+ efflux was detected and quantified by measuring the extracellular K+ ion concentration.
First, and referring to FIG. 9, cells 150 were plated on 25 millimeter diameter graphene-coated glass coverslips 148 and placed underneath of a specially designed mold 146 in a well plate 144. […]
Referring now to FIG. 10, after about 2 minutes of stabilization of the GISFET 101 in the buffer solution 152 in the well plate 144, the A23187 activating chemical was added to the well plate 144, which caused a consistent increase in current for about 20 minutes thereafter. […] By calculating the K^+ concentration based on the calibration data, the K^+ concentration could then be determined to be about 50 uM. […]

Each structure is given as a SMILES string.

With `CC(C)[C@@H]1NC(=O)[C@H](C)OC(=O)[C@@H](C(C)C)NC(=O)[C@@H](C(C)C)OC(=O)[C@H](C(C)C)NC(=O)[C@H](C)OC(=O)[C@@H](C(C)C)NC(=O)[C@@H](C(C)C)OC(=O)[C@H](C(C)C)NC(=O)[C@H](C)OC(=O)[C@@H](C(C)C)NC(=O)[C@@H](C(C)C)OC1=O` [valinomycin], in assay [1], the “selectivity to K+ ions over Na+ ions (weaker valinomycin-Na+ complex)” value is 10,000 fold.
Regarding `CNc1ccc2oc(C[C@H]3O[C@@]4(CC[C@H]3C)O[C@H]([C@H](C)C(=O)c3ccc[nH]3)[C@H](C)C[C@H]4C)nc2c1C(=O)O` [A23187], the “duration of consistent increase in GISFET current after addition” value in assay [2] was “about 20 minutes”. Also, the “extracellular K+ concentration from K+ efflux after activation” value in assay [2] (calculated from GISFET calibration data) is reported as “about 50 uM”.

(Values after patent US10900927B2, “Graphene field effect transistors for detection of ions” (UNIVERSITY OF SOUTH CAROLINA, priority 2018, dated 2021).)
